Results: US8686022B2, “7-(piperazine-1-ymethyl)-1H-indole-2-carboxylic acid (phenyl)-amide derivatives and allied compounds as p38 MAP kinase inhibitors for the treatment of respiratory diseases” (Boehringer Ingelheim International GmbH, priority 2008, dated 2014)
pIC50: −log10 of the molar value. ≈ marks a conversion by molar mass, not a printed value.

Experiments:
cytochrome P450 2C9 = cytochrome P450 2C9 (Homo sapiens, UniProt P11712); assay: Determining the cyp2C9 activity (O-demethylation of [O-methyl-14C]-naproxen); type: in vitro ADME; details: human recombinant cytochrome P450 2C9; 37° C.; <0.4 μM when inhibition >50% at lowest concentration; read-out: CYP 2C9 IC50
cytochrome P450 2C9, sequence (P11712 whole entry): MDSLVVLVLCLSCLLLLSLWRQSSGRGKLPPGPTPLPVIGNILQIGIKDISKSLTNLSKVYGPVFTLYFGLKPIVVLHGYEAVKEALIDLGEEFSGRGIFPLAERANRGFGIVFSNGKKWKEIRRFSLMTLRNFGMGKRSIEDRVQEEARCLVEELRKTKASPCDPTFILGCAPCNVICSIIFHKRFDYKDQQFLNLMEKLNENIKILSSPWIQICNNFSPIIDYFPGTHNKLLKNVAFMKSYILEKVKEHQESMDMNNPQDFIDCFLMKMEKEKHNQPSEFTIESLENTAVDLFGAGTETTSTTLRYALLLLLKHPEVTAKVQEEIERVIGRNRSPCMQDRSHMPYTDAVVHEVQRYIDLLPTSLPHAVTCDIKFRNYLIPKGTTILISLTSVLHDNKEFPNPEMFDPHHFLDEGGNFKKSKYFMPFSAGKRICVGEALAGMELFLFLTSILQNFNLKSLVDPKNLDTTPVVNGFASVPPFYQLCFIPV
Procedure, shortened: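 Recombinant CYP2C9 (40 pmol/ml) with 80 μM [O-methyl-14C]-naproxen in 0.1 M Tris, 5 mM MgCl2; test compound at 50, 10, 2 and 0.4 μM in duplicate. Started with 1 mM NADPH, stopped after 15 min with TCA; 14C-formaldehyde separated by solid-phase extraction and counted by scintillation. IC50 from least-squares fit.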

[1] = Determining the solubility (saturated solution in McIlvaine buffer pH 7.4, UV spectroscopy); type: physicochemical; details: pH 7.4, aqueous buffer, thermodynamic from solid, shaken 2 hours, 0.75 mg solid in 0.75 ml
Procedure, shortened: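 Excess solid (0.75 mg per 0.75 ml) shaken 2 h in McIlvaine buffer pH 7.4, then filtered through 0.45 μm PTFE membrane with first drops discarded. Dissolved amount measured by UV spectroscopy.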

p38 MAP-kinase = p38 MAP-kinase (Homo sapiens, UniProt Q16539); assay: p38 MAP-kinase enzymatic assay (phosphorylation of GST-tagged ATF2, chemoluminescence); type: biochemical; details: inhibitor concentration 1 μM; activated p38 MAP-kinase 1 nM; ATP 100 μM; read-out: p38 (% Inh @ 1 μM)
p38 MAP-kinase, sequence (Q16539 whole entry): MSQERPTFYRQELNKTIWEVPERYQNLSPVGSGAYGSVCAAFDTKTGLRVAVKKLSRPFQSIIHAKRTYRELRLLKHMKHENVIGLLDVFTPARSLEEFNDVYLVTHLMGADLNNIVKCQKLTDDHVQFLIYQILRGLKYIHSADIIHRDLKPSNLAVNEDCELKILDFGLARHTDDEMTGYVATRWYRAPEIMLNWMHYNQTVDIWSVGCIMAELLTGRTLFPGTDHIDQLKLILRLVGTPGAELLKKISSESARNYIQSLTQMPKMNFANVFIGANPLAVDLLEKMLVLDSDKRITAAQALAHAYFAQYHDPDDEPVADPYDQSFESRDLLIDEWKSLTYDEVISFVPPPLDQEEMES
Procedure, shortened: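 Activated p38 MAP-kinase (1 nM) preincubated 4 h at ambient temperature with 1 μM compound in HEPES pH 7, MgCl2, DTT, TWEEN20, then reacted 1 h with 10 nM GST-ATF2 and 100 μM ATP. Phospho-ATF2 detected by AlphaScreen-type bead luminescence; percent inhibition at 1 μM versus uninhibited and kinase-free controls.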

Row | pIC50 (cytochrome P450 2C9) | solubility at 2 h [1] | inhibition at 1 µM (p38 MAP-kinase) | Structure (SMILES)
1 | 5.16 | 700 µg/mL (≈ 1020 µM) | 98.9% | COc1c(CN2CCCC(N(C)C)C2)cc(C(C)(C)C)cc1NC(=O)c1cc2cccc(CN3CCN(C(=O)[C@@H]4CCCN4C)CC3)c2n1C (stereo partly drawn) [9(3), 1-methyl-7-[4-((2S)-1-methyl-pyrrolidine-2-carbonyl)-piperazin-1-ylmethyl]-1H-indole-2-carboxylic acid-[5-tert-butyl-3-(3-dimethylamino-piperidin-1-ylmethyl)-2-methoxy-phenyl]-amide]
2 | 6.02 | 44 µg/mL (≈ 69.7 µM) | 87.7% | CCCC(=O)Nc1cc(C(C)(C)C)cc(NC(=O)c2cc3cccc(CN4CCN(C(=O)[C@@H]5CCCN5C)CC4)c3n2C)c1OC [12(1), (S)-1-methyl-7-[4-(1-methyl-pyrrolidine-2-carbonyl)-piperazin-1-ylmethyl]-1H-indole-2-carboxylic acid-(5-tert-butyl-3-butyrylamino-2-methoxy-phenyl)-amide]
3 | 6.05 | 100 µg/mL (≈ 160 µM) | 99.2% | COc1c(NC(=O)c2cc3cccc(CN4CCN(C(=O)[C@@H]5CCCN5)CC4)c3n2C)cc(C(C)(C)C)cc1NS(C)(=O)=O [1(4), (S)-1-methyl-7-[4-(pyrrolidine-2-carbonyl)-piperazin-1-ylmethyl]-1H-indole-2-carboxylic acid(5-tert-butyl-3-methanesulphonylamino-2-methoxy-phenyl)-amide]
4 | 6.30 | 660 µg/mL (≈ 1070 µM) | 97.9% | CCC(=O)Nc1cc(C(C)(C)C)cc(NC(=O)c2cc3cccc(CN4CCN(C(=O)[C@@H]5CCCN5C)CC4)c3n2C)c1OC [Example 12, (S)-1-methyl-7-[4-(1-methyl-pyrrolidine-2-carbonyl)-piperazin-1-ylmethyl]-1H-indole-2-carboxylic acid-(5-tert-butyl-2-methoxy-3-propionylamino-phenyl)-amide]
5 | 5.44 | 98 µg/mL (≈ 147 µM) | 98.5% | COc1c(NC(=O)c2cc3cccc(CC4CCCN(C(=O)C5CCN(C)CC5)CC4)c3n2C)cc(C(C)(C)C)cc1NS(C)(=O)=O (stereo not drawn) [1(19), 1-methyl-7-[1-(1-methyl-piperidine-4-carbonyl)-azepan-4-ylmethyl]-1H-indole-2-carboxylic acid-(5-tert-butyl-3-methanesulphonylamino-2-methoxy-phenyl)-amide]
6 | 5.94 | 620 µg/mL (≈ 971 µM) | 98.6% | COc1c(NC(=O)c2cc3cccc(CN4CCN(C(=O)[C@H]5CCN(C)C5)CC4)c3n2C)cc(C(C)(C)C)cc1NS(C)(=O)=O [Example 5, (S)-1-methyl-7-[4-(1-methyl-pyrrolidine-3-carbonyl)-piperazin-1-ylmethyl]-1H-indole-2-carboxylic acid (5-tert-butyl-3-methanesulphonylamino-2-methoxy-phenyl)-amide]
7 | 4.98 | 470 µg/mL (≈ 658 µM) | 97.7% | CCN(CC)C1CCN(Cc2cc(C(C)(C)C)cc(NC(=O)c3cc4cccc(CN5CCN(C(=O)[C@@H]6CCCN6C)CC5)c4n3C)c2OC)CC1 [9(6), (S)-1-methyl-7-[4-(1-methyl-pyrrolidine-2-carbonyl)-piperazin-1-ylmethyl]-1H-indole-2-carboxylic acid-[5-tert-butyl-3-(4-diethylamino-piperidin-1-ylmethyl)-2-methoxy-phenyl]-amide]
8 | 6.08 | 80 µg/mL (≈ 123 µM) | 98% | COc1c(NC(=O)c2cc3cccc(CC4CCCN(C(=O)[C@@H]5CCCN5C)CC4)c3n2C)cc(C(C)(C)C)cc1NS(C)(=O)=O (stereo partly drawn) [1(18), 1-methyl-7-[1-((2S)-1-methyl-pyrrolidine-2-carbonyl)-azepan-4-ylmethyl]-1H-indole-2-carboxylic acid-(5-tert-butyl-3-methanesulphonylamino-2-methoxy-phenyl)-amide]
9 | 5.24 | 120 µg/mL (≈ 188 µM) | 99.5% | COc1c(NC(=O)c2cc3cccc(CN4CCN(C(=O)[C@@H]5CCCN5C)CC4)c3n2C)cc(CC(C)C)cc1NS(C)(=O)=O [8(2), (S)-1-methyl-7-[4-(1-methyl-pyrrolidine-2-carbonyl)-piperazin-1-ylmethyl]-1H-indole-2-carboxylic acid-(5-isobutyl-3-methanesulphonylamino-2-methoxy-phenyl)-amide]
10 | 6.20 | 120 µg/mL (≈ 172 µM) | 99.1% | COc1c(NC(=O)c2cc3cccc(CN4CCN(C(=O)CN5CCN(C(C)C)CC5)CC4)c3n2C)cc(C(C)(C)C)cc1NS(C)(=O)=O [1(14), 7-{4-[2-(4-isopropyl-piperazin-1-yl)-acetyl]-piperazin-1-ylmethyl}-1-methyl-1H-indole-2-carboxylic acid-(5-tert-butyl-3-methanesulphonylamino-2-methoxy-phenyl)-amide]
11 | 5.80 | 590 µg/mL (≈ 979 µM) | 99.3% | CNC(=O)c1cc(C(C)(C)C)cc(NC(=O)c2cc3cccc(CN4CCN(C(=O)[C@@H]5CCCN5C)CC4)c3n2C)c1OC [10(3), (S)-1-methyl-7-[4-(1-methyl-pyrrolidine-2-carbonyl)-piperazin-1-ylmethyl]-1H-indole-2-carboxylic acid-(5-tert-butyl-2-methoxy-3-methylcarbamoyl-phenyl)-amide]
12 | 5.11 | 860 µg/mL (≈ 1360 µM) | 98.2% | CCN(CC)Cc1cc(C(C)(C)C)cc(NC(=O)c2cc3cccc(CN4CCN(C(=O)[C@@H]5CCCN5C)CC4)c3n2C)c1OC [9(2), (S)-1-methyl-7-[4-(1-methyl-pyrrolidine-2-carbonyl)-piperazin-1-ylmethyl]-1H-indole-2-carboxylic acid-(5-tert-butyl-3-diethylaminomethyl-2-methoxy-phenyl)-amide]
13 | 5.50 | 680 µg/mL (≈ 1090 µM) | 99.6% | COc1c(C[S+](C)[O-])cc(C(C)(C)C)cc1NC(=O)c1cc2cccc(CN3CCN(C(=O)[C@@H]4CCCN4C)CC3)c2n1C (stereo partly drawn) [11(6), 1-methyl-7-[4-((2S)-1-methyl-pyrrolidine-2-carbonyl)-piperazin-1-ylmethyl]-1H-indole-2-carboxylic acid-(5-tert-butyl-3-methanesulphinylmethyl-2-methoxy-phenyl)-amide]
14 | 5.46 | > 1000 µg/mL | 98.6% | COc1c(NC(=O)c2cc3cccc(CN4CCN(C(=O)CN5CCC(N(C)C)CC5)CC4)c3n2C)cc(C(C)(C)C)cc1NS(C)(=O)=O [Example 6, 7-{4-[2-(4-dimethylamino-piperidin-1-yl)-acetyl]-piperazin-1-ylmethyl}-1-methyl-1H-indole-2-carboxylic acid-(5-tert-butyl-3-methanesulphonylamino-2-methoxy-phenyl)-amide]
15 | 6.34 | 43 µg/mL (≈ 68.9 µM) | 99.5% | COc1c(NC(=O)c2cc3cccc(CN4CCN(C(=O)[C@@H]5CCCN5C)CC4)c3n2C)cc(C(C)(C)C)cc1S(C)(=O)=O [11(4), (S)-1-methyl-7-[4-(1-methyl-pyrrolidine-2-carbonyl)-piperazin-1-ylmethyl]-1H-indole-2-carboxylic acid-(5-tert-butyl-3-methanesulphonyl-2-methoxy-phenyl)-amide]
16 | 5.84 | 560 µg/mL (≈ 878 µM) | 99.3% | COc1c(NC(=O)c2cc3cccc(CC4CCN(C(=O)[C@H]5CCCN5C)CC4)c3n2C)cc(C(C)(C)C)cc1NS(C)(=O)=O [1(6), (R)-1-methyl-7-[1-(1-methyl-pyrrolidine-2-carbonyl)-piperidin-4-ylmethyl]-1H-indole-2-carboxylic acid(5-tert-butyl-3-methanesulphonylamino-2-methoxy-phenyl)-amide]
17 | 5.92 | 73 µg/mL (≈ 111 µM) | 98.9% | COc1c(NC(=O)c2cc3cccc(CN4CCN(C(=O)CN5CC[C@H](O)C5)CC4)c3n2C)cc(C(C)(C)C)cc1NS(C)(=O)=O [1(15), (S)-7-{4-[2-(3-hydroxy-pyrrolidin-1-yl)-acetyl]-piperazin-1-ylmethyl}-1-methyl-1H-indole-2-carboxylic acid-(5-tert-butyl-3-methanesulphonylamino-2-methoxy-phenyl)-amide]
18 | 5.81 | 42 µg/mL (≈ 64.3 µM) | 99.1% | COc1c(NC(=O)c2cc3cccc(CN4CCC(C(=O)N5CCN(C)CC5)CC4)c3n2C)cc(C(C)(C)C)cc1NS(C)(=O)=O [1(22), 1-methyl-7-[4-(4-methyl-piperazine-1-carbonyl)-piperidin-1-ylmethyl]-1H-indole-2-carboxylic acid-(5-tert-butyl-3-methanesulphonylamino-2-methoxy-phenyl)-amide]
19 | 5.95 | 440 µg/mL (≈ 658 µM) | 98.9% | COc1c(NC(=O)c2cc3cccc(CN4CCN(C(=O)[C@H]5C[C@@H](OC)CN5C)CC4)c3n2C)cc(C(C)(C)C)cc1NS(C)(=O)=O [1(9), 7-[4-((2R,4R)-4-methoxy-1-methyl-pyrrolidine-2-carbonyl)-piperazin-1-ylmethyl]-1-methyl-1H-indole-2-carboxylic acid(5-tert-butyl-3-methanesulphonylamino-2-methoxy-phenyl)-amide]
